# Laboratory results published in PMC8617031, “Development of a BCL-xL and BCL-2 dual degrader with improved anti-leukemic activity,” (Nature Communications, 2021).
# “And” between values parts separate entries of the source, which are not always exact repeats. Equal entries are not always repeated. Where two headings read alike, the source gives them in different places.
# Tests used:
# 293T cells = experiment: Viability (MTS) of 293T cells; format: cell-based, human; conditions: normalised to own plate; for 293T cell viability, MTS absorbance 490 as percent of untreated control, mean of three wells: mean of 3 wells
# Method: Suspension cells were treated 30 min after seeding, whereas adherent cells were allowed to adhere overnight and were then treated. Compound treatments were prepared in complete cell culture medium and 100 µl of 2× treatment-containing medium were added to each well. Complete cell culture medium without treatment was added in control wells, and wells containing medium without cells served as background. The outer wells of the 96-well plate were not used for treatment and were filled with 250 µl of PBS to reduce evaporation of medium from inner wells. Each compound and/or combination was tested at nine different concentrations with three replicates. The cell viability was measured after 72 h by tetrazolium-based MTS assay. MTS reagent (2 mg ml^–1 stock; cat. no. G1111, Promega) was freshly supplemented with phenazine methosulfate (PMS, 0.92 mg ml^–1 stock, cat. no. P9625, Sigma-Aldrich) in 20:1 ratio, and 20 µl of this mixture was added to each control and treatment well. The cells were incubated for 4 h at 37 °C and 5% CO2, and then the absorbance was recorded at 490 nm using Biotek’s Synergy Neo2 multimode plate reader (Biotek). The average absorbance value of background wells was subtracted from absorbance value of each control and treatment well, and percent cell viability ((At/A0) × 100)) was determined in each treatment well, where At is the absorbance value of the treatment well and A0 is the average absorbance value of control wells after background subtraction. The data were expressed as average percentage cell viability and fitted in non-linear regression curves using GraphPad Prism 7 (GraphPad Software, La Jolla, CA, USA).
# His-tagged BCL-2 = biological target: T1, His-tagged BCL-2 (Homo sapiens, UniProt P10415); experiment: AlphaScreen competitive binary binding, BCL-2 (biotin-BIM peptide); conditions: for Alpha signal normalised to Maximum/Minimum (inhibition): in % (unit assumed)
# T1 construct: purchased Sigma-Aldrich SRP0186
# T1 sequence (P10415 whole entry): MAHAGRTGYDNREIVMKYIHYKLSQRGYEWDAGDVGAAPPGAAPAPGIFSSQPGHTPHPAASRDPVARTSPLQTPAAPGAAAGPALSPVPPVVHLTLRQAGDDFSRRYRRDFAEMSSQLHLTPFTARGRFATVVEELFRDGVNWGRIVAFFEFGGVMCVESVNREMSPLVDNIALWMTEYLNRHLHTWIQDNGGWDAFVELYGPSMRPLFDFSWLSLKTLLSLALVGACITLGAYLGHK
# Method: The reagents were diluted in a buffer containing 250 mM HEPES pH 7.5, 1 M NaCl, 1% BSA, and 0.05% Tween-80. His-tagged BCL-xL (0.5 nM, Cat. No. SRP0187, Sigma-Aldrich) or BCL-2 (1 nM, Cat. No. SRP0186, Sigma-Aldrich) were incubated with serial diluted 753a or 753b and 2 nM biotin-tagged BAD (biotin-[…] amino-terminal, AnaSpec, for BCL-xL) or 10 nM BIM peptides (biotin-[…] N-terminal, AnaSpec, for BCL-2) to a final volume of 40 µl in a 96-well PCR plate. […] After incubation for 2 h, 5 µl 6× His-acceptor beads (Cat. No. AL128M, PerkinElmer) were added to each well at 20 µg/ml final concentration and incubated for 1 h. Then 5 µl streptavidin-donor beads were added (Cat. No. 6760002, PerkinElmer) to each well at 20 µg/ml final concentration and incubated for 45 min. At the end of the incubation period, 17 µl of each sample was transferred in adjacent wells of 384-well proxy plate (Cat. No. 6008280, PerkinElmer). The plate was scanned using the Alpha program on Biotek’s Synergy Neo2 multimode plate reader. The inhibition constant (Ki) was calculated using the non-linear regression, one site, competitive binding, Fit Ki function on GraphPad Prism 9 software, based on experimentally determined dissociation constant (Kd) for each protein–peptide pair.
compound,measurement,setting,value
"CC1(C)CCC(c2ccc(Cl)cc2)=C(CN2CCN(c3ccc(C(=O)NS(=O)(=O)c4ccc(N[C@H](CCN5CCOCC5)CSc5ccccc5)c(S(=O)(=O)C(F)(F)F)c4)cc3)CC2)C1 [ABT263, navitoclax]","293T cell viability, MTS absorbance 490 as percent of untreated control, mean of three wells",293T cells; 0.00137174 uM,97.7794
same,"293T cell viability, MTS absorbance 490 as percent of untreated control, single replicate well",293T cells; 0.00137174 uM,98.6099 and 98.5015
same,"293T cell viability, MTS absorbance 490 as percent of untreated control, mean of three wells",293T cells; 0.00411523 uM,103.484
same,"293T cell viability, MTS absorbance 490 as percent of untreated control, single replicate well",293T cells; 0.00411523 uM,107.709 and 108.359
same,"293T cell viability, MTS absorbance 490 as percent of untreated control, single replicate well",293T cells; 0.037037 uM,116.375 and 110.092
same,"293T cell viability, MTS absorbance 490 as percent of untreated control, single replicate well",293T cells; 0.111111 uM,96.1184 and 122.874 and 120.166
same,"293T cell viability, MTS absorbance 490 as percent of untreated control, single replicate well",293T cells; 0.333333 uM,101.968 and 111.934
same,"293T cell viability, MTS absorbance 490 as percent of untreated control, single replicate well",293T cells; 1 uM,97.2017 and 104.893
same,"293T cell viability, MTS absorbance 490 as percent of untreated control, single replicate well",293T cells; 3 uM,60.8052 and 61.6718
same,Alpha signal normalised to Maximum/Minimum (inhibition),"His-tagged BCL-2; BCL-2 Rep-1, 0.000305176 uM, 0.000305176 µM",59.5965
same,inhibition at 0.000305176 µM,"His-tagged BCL-2; BCL-2 Rep-1, 0.000305176 uM, read-out: Alpha signal normalised to Maximum/Minimum (inhibition)",58.7%
same,Alpha signal normalised to Maximum/Minimum (inhibition),"His-tagged BCL-2; BCL-2 Rep-1, 0.0012207 uM, 0.0012207 µM",60.0938
same,inhibition at 0.0012207 µM,"His-tagged BCL-2; BCL-2 Rep-1, 0.0012207 uM, read-out: Alpha signal normalised to Maximum/Minimum (inhibition)",49.1%
same,Alpha signal normalised to Maximum/Minimum (inhibition),"His-tagged BCL-2; BCL-2 Rep-1, 0.00488281 uM, 0.00488281 µM",80.812
same,inhibition at 0.00488281 µM,"His-tagged BCL-2; BCL-2 Rep-1, 0.00488281 uM, read-out: Alpha signal normalised to Maximum/Minimum (inhibition)",82.4%
same,Alpha signal normalised to Maximum/Minimum (inhibition),"His-tagged BCL-2; BCL-2 Rep-1, 0.0195312 uM, 0.0195312 µM",99.3807
same,inhibition at 0.0195312 µM,"His-tagged BCL-2; BCL-2 Rep-1, 0.0195312 uM, read-out: Alpha signal normalised to Maximum/Minimum (inhibition)",98.6%
same,Alpha signal normalised to Maximum/Minimum (inhibition),"His-tagged BCL-2; BCL-2 Rep-1, 0.078125 uM, 0.078125 µM",99.9974
same,inhibition at 0.078125 µM,"His-tagged BCL-2; BCL-2 Rep-1, 0.078125 uM, read-out: Alpha signal normalised to Maximum/Minimum (inhibition)",100%
same,Alpha signal normalised to Maximum/Minimum (inhibition),"His-tagged BCL-2; BCL-2 Rep-1, 0.3125 uM, 0.3125 µM",99.341
same,inhibition at 0.3125 µM,"His-tagged BCL-2; BCL-2 Rep-1, 0.3125 uM, read-out: Alpha signal normalised to Maximum/Minimum (inhibition)",98.9%
same,Alpha signal normalised to Maximum/Minimum (inhibition),"His-tagged BCL-2; BCL-2 Rep-1, 1.25 uM, 1.25 µM",100.024
same,inhibition at 1.25 µM,"His-tagged BCL-2; BCL-2 Rep-1, 1.25 uM, read-out: Alpha signal normalised to Maximum/Minimum (inhibition)",99%
same,Alpha signal normalised to Maximum/Minimum (inhibition),"His-tagged BCL-2; BCL-2 Rep-1, 5 uM, 5 µM",98.7813
same,inhibition at 5 µM,"His-tagged BCL-2; BCL-2 Rep-1, 5 uM, read-out: Alpha signal normalised to Maximum/Minimum (inhibition)",99%
same,Alpha signal (raw counts),"His-tagged BCL-2; BCL-2 Rep-2, 0.00488281 uM",125701 and 136831
same,Alpha signal normalised to Maximum/Minimum (inhibition),"His-tagged BCL-2; BCL-2 Rep-2, 0.0195312 uM, 0.0195312 µM",98.383
same,inhibition at 0.0195312 µM,"His-tagged BCL-2; BCL-2 Rep-2, 0.0195312 uM, read-out: Alpha signal normalised to Maximum/Minimum (inhibition)",98.1%
same,Alpha signal normalised to Maximum/Minimum (inhibition),"His-tagged BCL-2; BCL-2 Rep-2, 0.078125 uM, 0.078125 µM",99.1744
same,inhibition at 0.078125 µM,"His-tagged BCL-2; BCL-2 Rep-2, 0.078125 uM, read-out: Alpha signal normalised to Maximum/Minimum (inhibition)",98.7%
same,Alpha signal normalised to Maximum/Minimum (inhibition),"His-tagged BCL-2; BCL-2 Rep-2, 0.3125 uM, 0.3125 µM",99.3426
same,inhibition at 0.3125 µM,"His-tagged BCL-2; BCL-2 Rep-2, 0.3125 uM, read-out: Alpha signal normalised to Maximum/Minimum (inhibition)",98.9%
same,Alpha signal normalised to Maximum/Minimum (inhibition),"His-tagged BCL-2; BCL-2 Rep-2, 1.25 uM, 1.25 µM",99.8148
same,inhibition at 1.25 µM,"His-tagged BCL-2; BCL-2 Rep-2, 1.25 uM, read-out: Alpha signal normalised to Maximum/Minimum (inhibition)",97.9%
same,Alpha signal normalised to Maximum/Minimum (inhibition),"His-tagged BCL-2; BCL-2 Rep-2, 5 uM, 5 µM",100.138
same,inhibition at 5 µM,"His-tagged BCL-2; BCL-2 Rep-2, 5 uM, read-out: Alpha signal normalised to Maximum/Minimum (inhibition)",98%
same,Alpha signal (raw counts),"His-tagged BCL-2; BCL-2 Rep-2, plate row C, 1.25 uM",32515 and 16642
same,Alpha signal (raw counts),"His-tagged BCL-2; BCL-2 Rep-2, plate row D, 0.3125 uM",24362 and 20560
same,Alpha signal (raw counts),"His-tagged BCL-2; BCL-2 Rep-2, plate row E, 0.078125 uM",25987 and 21955
same,Alpha signal (raw counts),"His-tagged BCL-2; BCL-2 Rep-2, plate row F, 0.0195312 uM",31255 and 28520
same,Alpha signal (raw counts),"His-tagged BCL-2; BCL-2 Rep-2, plate row H, 0.0012207 uM",409647 and 386712
same,Alpha signal (raw counts),"His-tagged BCL-2; BCL-2 Rep-2, plate row I, 0.000305176 uM",513586 and 565907
same,Alpha signal (raw counts),"His-tagged BCL-2; BCL-2 Rep-2, plate row J, 7.62939e-5 uM",711623 and 736033
